From ChEMBL document CHEMBL4346757, “Synthesis and biological evaluation of 7-methoxy-1-(3,4,5-trimethoxyphenyl)-4,5-dihydro-2H-benzo[e]indazoles as new colchicine site inhibitors” (Bioorg Med Chem Lett, 2019)

How the values were obtained:
Format in all cases: functional
SR [1] = experiment: Growth inhibition of human SR cells assessed as cell growth at 0.01 uM after 48 hrs by SRB assay relative to control; details: read-out: Activity
SW-620 [2] = experiment: Growth inhibition of human SW620 cells assessed as cell growth at 0.01 uM after 48 hrs by SRB assay relative to control; details: SW-620, 48 h, read-out: Activity
M14 = experiment: Growth inhibition of human M14 cells assessed as cell growth at 0.01 uM after 48 hrs by SRB assay relative to control; details: M14, 48 h, read-out: Activity
SR [3] = experiment: Growth inhibition of human SR cells assessed as cell growth at 0.1 uM after 48 hrs by SRB assay relative to control; details: read-out: Activity
HOP-62 = experiment: Growth inhibition of human HOP62 cells assessed as cell growth at 0.1 uM after 48 hrs by SRB assay relative to control; details: HOP-62, 48 h, read-out: Activity
HT-29 = experiment: Growth inhibition of human HT-29 cells assessed as cell growth at 0.1 uM after 48 hrs by SRB assay relative to control; details: HT-29, 48 h, read-out: Activity
OVCAR-3 = experiment: Growth inhibition of human OVCAR3 cells assessed as cell growth at 0.1 uM after 48 hrs by SRB assay relative to control; details: OVCAR-3, 48 h, read-out: Activity
OVCAR-5 [4] = experiment: Growth inhibition of human OVCAR5 cells assessed as cell growth at 0.1 uM after 48 hrs by SRB assay relative to control; details: OVCAR-5, 48 h, read-out: Activity
OVCAR-8 [5] = experiment: Growth inhibition of human OVCAR8 cells assessed as cell growth at 0.1 uM after 48 hrs by SRB assay relative to control; details: OVCAR-8, 48 h, read-out: Activity
OVCAR-8 [6] = experiment: Growth inhibition of human OVCAR8 cells assessed as cell growth at 1 uM after 48 hrs by SRB assay relative to control; details: OVCAR-8, 48 h, read-out: Activity
SK-OV-3 [7] = experiment: Growth inhibition of human SKOV3 cells assessed as cell growth at 1 uM after 48 hrs by SRB assay relative to control; details: SK-OV-3, 48 h, read-out: Activity
SN12C [8] = experiment: Growth inhibition of human SN12C cells assessed as cell growth at 1 uM after 48 hrs by SRB assay relative to control; details: read-out: Activity
DU-145 [9] = experiment: Growth inhibition of human DU145 cells assessed as cell growth at 1 uM after 48 hrs by SRB assay relative to control; details: DU-145, 48 h, read-out: Activity
CCRF-CEM [10] = experiment: Growth inhibition of human CCRF-CEM cells assessed as cell growth at 10 uM after 48 hrs by SRB assay relative to control; details: read-out: Activity
RPMI-8226 = experiment: Growth inhibition of human RPMI8226 cells assessed as cell growth at 10 uM after 48 hrs by SRB assay relative to control; details: RPMI-8226, 48 h, read-out: Activity
SK-OV-3 [11] = experiment: Growth inhibition of human SKOV3 cells assessed as cell growth at 10 uM after 48 hrs by SRB assay relative to control; details: SK-OV-3, 48 h, read-out: Activity
UO-31 = experiment: Growth inhibition of human UO31 cells assessed as cell growth at 10 uM after 48 hrs by SRB assay relative to control; details: UO-31, 48 h, read-out: Activity
DU-145 [12] = experiment: Growth inhibition of human DU145 cells assessed as cell growth at 10 uM after 48 hrs by SRB assay relative to control; details: DU-145, 48 h, read-out: Activity
CCRF-CEM [13] = experiment: Growth inhibition of human CCRF-CEM cells assessed as cell growth at 100 uM after 48 hrs by SRB assay relative to control; details: read-out: Activity
EKVX [14] = experiment: Growth inhibition of human EKVX cells assessed as cell growth at 100 uM after 48 hrs by SRB assay relative to control; details: read-out: Activity
NCI-H460 = experiment: Growth inhibition of human NCI-H460 cells assessed as cell growth at 100 uM after 48 hrs by SRB assay relative to control; details: NCI-H460, 48 h, read-out: Activity
HCT-116 = experiment: Growth inhibition of human HCT116 cells assessed as cell growth at 100 uM after 48 hrs by SRB assay relative to control; details: HCT-116, 48 h, read-out: Activity
HCT-15 [15] = experiment: Growth inhibition of human HCT15 cells assessed as cell growth at 100 uM after 48 hrs by SRB assay relative to control; details: HCT-15, 48 h, read-out: Activity
SK-OV-3 [16] = experiment: Growth inhibition of human SKOV3 cells assessed as cell growth at 100 uM after 48 hrs by SRB assay relative to control; details: SK-OV-3, 48 h, read-out: Activity
RXF 393 = experiment: Growth inhibition of human RXF393 cells assessed as cell growth at 100 uM after 48 hrs by SRB assay relative to control; details: RXF 393, 48 h, read-out: Activity
SN12C [17] = experiment: Growth inhibition of human SN12C cells assessed as cell growth at 100 uM after 48 hrs by SRB assay relative to control; details: read-out: Activity
EKVX [18] = experiment: Cytotoxicity against human EKVX cells assessed as growth inhibition after 48 hrs by SRB assay
HCT-15 [19] = experiment: Cytotoxicity against human HCT15 cells assessed as growth inhibition after 48 hrs by SRB assay; details: HCT-15, 48 h
SW-620 [20] = experiment: Cytotoxicity against human SW620 cells assessed as growth inhibition after 48 hrs by SRB assay; details: SW-620, 48 h
SNB-19 = experiment: Cytotoxicity against human SNB19 cells assessed as growth inhibition after 48 hrs by SRB assay; details: SNB-19, 48 h
OVCAR-5 [21] = experiment: Cytotoxicity against human OVCAR5 cells assessed as growth inhibition after 48 hrs by SRB assay; details: OVCAR-5, 48 h
MDA-MB-231 = experiment: Cytotoxicity against human MDA-MB-231/ATCC cells assessed as growth inhibition after 48 hrs by SRB assay; details: MDA-MB-231, 48 h
[22] = read-out: LC50 (the source's name)
[23] = read-out: pLC50 (the source's name) (converted)

SMILES: COc1ccc2c(c1)CCc1n[nH]c(-c3cc(OC)c(OC)c(OC)c3)c1-2
- growth at 0.01 µM (SR [1]): 23%
- growth at 0.01 µM (SW-620 [2]): 16%
- growth at 0.01 µM (M14): 2%
- growth at 0.1 µM (SR [3]): 18%
- growth at 0.1 µM (HOP-62): 6%
- growth at 0.1 µM (HT-29): 2%
- growth at 0.1 µM (OVCAR-3): 12%
- growth at 0.1 µM (OVCAR-5 [4]): 54%
- growth at 0.1 µM (OVCAR-8 [5]): 13%
- growth at 1 µM (OVCAR-8 [6]): 10%
- growth at 1 µM (SK-OV-3 [7]): -5%
- growth at 1 µM (SN12C [8]): 36%
- growth at 1 µM (DU-145 [9]): 12%
- growth at 10 µM (CCRF-CEM [10]): 41%
- growth at 10 µM (RPMI-8226): 35%
- growth at 10 µM (SK-OV-3 [11]): -13%
- growth at 10 µM (UO-31): 13%
- growth at 10 µM (DU-145 [12]): 8%
- growth at 100 µM (CCRF-CEM [13]): 25%
- growth at 100 µM (EKVX [14]): -25%
- growth at 100 µM (NCI-H460): -59%
- growth at 100 µM (HCT-116): -66%
- growth at 100 µM (HCT-15 [15]): -41%
- growth at 100 µM (SK-OV-3 [16]): -50%
- growth at 100 µM (RXF 393): -68%
- growth at 100 µM (SN12C [17]): -47%
- CC50 (EKVX [18]; [22]): > 100 µM
- TGI (EKVX [18]; read-out: TGI): 39 µM
- CC50 (EKVX [18]; [23]): > 100 µM
- TGI (EKVX [18]; read-out: pTGI (converted)): 38.9 µM
- GI50 (HCT-15 [19]; read-out: GI50): < 0.01 µM
- CC50 (HCT-15 [19]; [22]): > 100 µM
- TGI (HCT-15 [19]; read-out: TGI): 11.8 µM
- GI50 (HCT-15 [19]; read-out: pGI50 (converted)): < 0.01 µM
- CC50 (HCT-15 [19]; [23]): > 100 µM
- TGI (HCT-15 [19]; read-out: pTGI (converted)): 11.7 µM
- GI50 (SW-620 [20]; read-out: GI50): < 0.01 µM
- CC50 (SW-620 [20]; [22]): 52.2 µM
- TGI (SW-620 [20]; read-out: TGI): 14.5 µM
- GI50 (SW-620 [20]; read-out: pGI50 (converted)): < 0.01 µM
- CC50 (SW-620 [20]; [23]): 52.5 µM
- TGI (SW-620 [20]; read-out: pTGI (converted)): 14.5 µM
- GI50 (SNB-19; read-out: GI50): < 0.01 µM
- CC50 (SNB-19; [22]): > 100 µM
- TGI (SNB-19; read-out: TGI): 46.3 µM
- GI50 (SNB-19; read-out: pGI50 (converted)): < 0.01 µM
- CC50 (SNB-19; [23]): > 100 µM
- TGI (SNB-19; read-out: pTGI (converted)): 46.8 µM
- GI50 (OVCAR-5 [21]; read-out: GI50): 0.242 µM
- LC50 (OVCAR-5 [21]; read-out: LC50): > 100 µM
- TGI (OVCAR-5 [21]; read-out: TGI): 38.8 µM
- GI50 (OVCAR-5 [21]; read-out: pGI50 (converted)): 0.24 µM
- LC50 (OVCAR-5 [21]; read-out: pLC50 (converted)): > 100 µM
- TGI (OVCAR-5 [21]; read-out: pTGI (converted)): 38.9 µM
- GI50 (MDA-MB-231; read-out: GI50): < 0.01 µM
- LC50 (concentration killing 50% of cells) (MDA-MB-231; read-out: LC50): > 100 µM
- TGI (MDA-MB-231; read-out: TGI): 44.8 µM
- GI50 (MDA-MB-231; read-out: pGI50 (converted)): < 0.01 µM
- LC50 (concentration killing 50% of cells) (MDA-MB-231; read-out: pLC50 (converted)): > 100 µM
- TGI (MDA-MB-231; read-out: pTGI (converted)): 44.7 µM
